Data from patent US11180504B2 (ORCHID PHARMA LTD., priority 2016, dated 2021).
In brackets after ≈: the same amount, converted by molar mass.

What was measured:
[1] = system: methicillin-sensitive Staphylococcus aureus; assay: MIC by broth micro-dilution (CLSI), methicillin-sensitive S. aureus; assay type: cell-based; conditions: Staphylococcus aureus, ATCC 29213 / MSSA, MSSA S. aureus ATCC29213; read-out: MIC
[2] = system: carbapenem sensitive Escherichia coli; assay: MIC by broth micro-dilution (CLSI), carbapenem sensitive E. coli; assay type: cell-based; conditions: Escherichia coli, ATCC25922, ESBL −ve E. coli ATCC25922; read-out: MIC
[3] = system: extended spectrum β lactamase (ESBL) SHV18 producing Klebsiella pneumoniae; assay: MIC by broth micro-dilution (CLSI), ESBL SHV18 producing K. pneumoniae; assay type: cell-based; conditions: Klebsiella pneumoniae, ATCC700603, 22 h, ESBL +ve (SHV-18) K. pneumoniae ATCC700603; read-out: MIC
[4] = system: carbapenemase producing K. pneumoniae; assay: MIC by broth micro-dilution (CLSI), carbapenemase producing K. pneumoniae; assay type: cell-based, Klebsiella pneumoniae; conditions: Klebsiella pneumoniae, ATCCBAA1705, KPC-2 K. pneumoniae ATCC BAA-1705; read-out: MIC
[5] = system: carbapenem sensitive Pseudomonas aeruginosa; assay: MIC by broth micro-dilution (CLSI), carbapenem sensitive P. aeruginosa; assay type: cell-based; conditions: Pseudomonas aeruginosa, ATCC27853, Meropenem susceptible P. aeruginosa ATCC27853; read-out: MIC

| Structure (SMILES) | MIC [1] | MIC [2] | MIC [3] | MIC [4] | MIC [5] |
| --- | --- | --- | --- | --- | --- |
| C[C@@H](NC(=O)C(F)F)[C@H]1C(=O)N2C(C(=O)O)=C(SCCNC(=O)OC(C)(C)C)[C@H](C)[C@H]12 [Example 93] | 16 µg/mL (≈ 34.5 µM) | 128 µg/mL (≈ 276 µM) | > 128 µg/mL | > 128 µg/mL | > 128 µg/mL |
| C[C@@H](NC(=O)C(F)F)[C@H]1C(=O)N2C(C(=O)O)=C(Sc3nc(-c4cc[n+](C)cc4)cs3)[C@H](C)[C@H]12 [Example 94] | 0.25 µg/mL | 64 µg/mL | > 128 µg/mL | > 128 µg/mL | > 128 µg/mL |
| CNCC(=O)N[C@@H](C)[C@H]1C(=O)N2C(C(=O)O)=C(S[C@H]3CN[C@H](C(=O)N4CC[C@@H](N)C4)C3)[C@H](C)[C@H]12 [Example 95, (4R,5S,6R)-3-((3R,5S)-5-((R)-3-aminopyrrolidine-1-carbonyl)pyrrolidin-3-ylthio)-4-methyl-6-((S)-1-(2-(methylamino)acetamido)ethyl)-7-oxo-1-azabicyclo[3.2.0]hept-2-ene-2-carboxylic acid] | 32 µg/mL (≈ 64.7 µM) | 1 µg/mL (≈ 2.02 µM) | 2 µg/mL (≈ 4.04 µM) | 2 µg/mL (≈ 4.04 µM) | 2 µg/mL (≈ 4.04 µM) |
| C[C@@H](NC(=O)C(F)F)[C@H]1C(=O)N2C(C(=O)O)=C(SCc3cccnc3)[C@H](C)[C@H]12 [Example 96] | 1 µg/mL (≈ 2.43 µM) | 4 µg/mL (≈ 9.72 µM) | 64 µg/mL (≈ 156 µM) | 32 µg/mL (≈ 77.8 µM) | > 128 µg/mL |
| C[C@@H](NC(=O)C(F)F)[C@H]1C(=O)N2C(C(=O)O)=C(SCc3ccncc3)[C@H](C)[C@H]12 [Example 97] | 1 µg/mL (≈ 2.43 µM) | 8 µg/mL (≈ 19.4 µM) | 128 µg/mL (≈ 311 µM) | 64 µg/mL (≈ 156 µM) | > 128 µg/mL |
| CCOC(=O)CN[C@H](C)[C@H]1C(=O)N2C(C(=O)O)=C(S[C@@H]3CN[C@H](C(=O)N(C)C)C3)[C@H](C)[C@H]12 [Example 98] | 32 µg/mL (≈ 68.3 µM) | 8 µg/mL (≈ 17.1 µM) | 32 µg/mL (≈ 68.3 µM) | 32 µg/mL (≈ 68.3 µM) | > 128 µg/mL |
| C[C@@H](NCC(=O)O)[C@H]1C(=O)N2C(C(=O)O)=C(S[C@@H]3CN[C@H](C(=O)N(C)C)C3)[C@H](C)[C@H]12 [Example 99] | 128 µg/mL (≈ 291 µM) | 64 µg/mL (≈ 145 µM) | 16 µg/mL (≈ 36.3 µM) | 64 µg/mL (≈ 145 µM) | 16 µg/mL (≈ 36.3 µM) |
| C[C@@H](NC(=O)CN(C)C)[C@H]1C(=O)N2C(C(=O)O)=C(S[C@@H]3CN[C@H](C(=O)N(C)C)C3)[C@H](C)[C@H]12 [Example 100] | 16 µg/mL (≈ 34.2 µM) | 1 µg/mL (≈ 2.14 µM) | 8 µg/mL (≈ 17.1 µM) | 4 µg/mL (≈ 8.55 µM) | 32 µg/mL (≈ 68.4 µM) |
| CNC(=O)[C@@H]1C[C@H](SC2=C(C(=O)O)N3C(=O)[C@H]([C@@H](C)NC(=O)C(F)F)[C@H]3[C@H]2C)CN1 [Example 101] | 2 µg/mL (≈ 4.48 µM) | 0.5 µg/mL (≈ 1.12 µM) | 1 µg/mL (≈ 2.24 µM) | 4 µg/mL (≈ 8.96 µM) | 64 µg/mL (≈ 143 µM) |
| C[C@@H](NC(=O)C(F)F)[C@H]1C(=O)N2C(C(=O)O)=C(S[C@@H]3CN[C@H](C(=O)NCCN(C)C)C3)[C@H](C)[C@H]12 [Example 102] | 2 µg/mL (≈ 3.97 µM) | 2 µg/mL (≈ 3.97 µM) | 8 µg/mL (≈ 15.9 µM) | 8 µg/mL (≈ 15.9 µM) | 64 µg/mL (≈ 127 µM) |
| C[C@@H](NC(=O)C(F)F)[C@H]1C(=O)N2C(C(=O)O)=C(S[C@@H]3CN[C@H](C(=O)N4CC[C@H](N)C4)C3)[C@H](C)[C@H]12 [Example 103] | 0.5 µg/mL (≈ 0.997 µM) | 0.5 µg/mL (≈ 0.997 µM) | 4 µg/mL (≈ 7.98 µM) | 8 µg/mL (≈ 16 µM) | 8 µg/mL (≈ 16 µM) |
| C[C@@H](NC(=O)C(F)F)[C@H]1C(=O)N2C(C(=O)O)=C(S[C@@H]3CN[C@H](C(=O)NCCO)C3)[C@H](C)[C@H]12 [Example 104] | 4 µg/mL (≈ 8.39 µM) | 0.5 µg/mL (≈ 1.05 µM) | 1 µg/mL (≈ 2.1 µM) | 4 µg/mL (≈ 8.39 µM) | 128 µg/mL (≈ 269 µM) |
| CN[C@H]1CCN(C(=O)[C@@H]2C[C@H](SC3=C(C(=O)O)N4C(=O)[C@H]([C@@H](C)NC(=O)C(F)F)[C@H]4[C@H]3C)CN2)C1 [Example 106] | 4 µg/mL (≈ 7.76 µM) | 1 µg/mL (≈ 1.94 µM) | 4 µg/mL (≈ 7.76 µM) | 4 µg/mL (≈ 7.76 µM) | 4 µg/mL (≈ 7.76 µM) |
| C[C@@H](NC(=O)C(F)F)[C@H]1C(=O)N2C(C(=O)O)=C(S[C@@H]3CN[C@H](C(=O)N4CC[C@H](N(C)C)C4)C3)[C@H](C)[C@H]12 [Example 107] | 4 µg/mL (≈ 7.55 µM) | 1 µg/mL (≈ 1.89 µM) | 4 µg/mL (≈ 7.55 µM) | 4 µg/mL (≈ 7.55 µM) | 16 µg/mL (≈ 30.2 µM) |
| C[C@@H](NC(=O)C(F)F)[C@H]1C(=O)N2C(C(=O)O)=C(S[C@H]3C[C@@H](C(=O)N(C)C)N(C=N)C3)[C@H](C)[C@H]12 [Example 108] | 2 µg/mL (≈ 4.1 µM) | 1 µg/mL (≈ 2.05 µM) | 4 µg/mL (≈ 8.2 µM) | 16 µg/mL (≈ 32.8 µM) | 128 µg/mL (≈ 263 µM) |
| CCOC(=O)C(=O)N[C@H](C)[C@H]1C(=O)N2C(C(=O)O)=C(S[C@@H]3CN[C@H](C(=O)N4CC[C@H](N)C4)C3)[C@H](C)[C@H]12 [Example 109] | 8 µg/mL (≈ 15.3 µM) | 4 µg/mL (≈ 7.64 µM) | 4 µg/mL (≈ 7.64 µM) | 16 µg/mL (≈ 30.6 µM) | 4 µg/mL (≈ 7.64 µM) |
| C[C@@H](NC(=O)C(F)F)[C@H]1C(=O)N2C(C(=O)O)=C(S[C@@H]3CN[C@H](C(=O)N4CC[C@H](NS(C)(=O)=O)C4)C3)[C@H](C)[C@H]12 [Example 110] | 4 µg/mL (≈ 6.9 µM) | 0.5 µg/mL (≈ 0.863 µM) | 2 µg/mL (≈ 3.45 µM) | 4 µg/mL (≈ 6.9 µM) | 32 µg/mL (≈ 55.2 µM) |
| C[C@@H](NC(=O)C(F)F)[C@H]1C(=O)N2C(C(=O)O)=C(S[C@@H]3CN[C@H](C(=O)NCCC(=O)NOCc4ccccc4)C3)[C@H](C)[C@H]12 [Example 111] | 4 µg/mL (≈ 6.56 µM) | 1 µg/mL (≈ 1.64 µM) | 16 µg/mL (≈ 26.2 µM) | 16 µg/mL (≈ 26.2 µM) | > 128 µg/mL |
| CNCC(=O)N[C@H](C)[C@H]1C(=O)N2C(C(=O)O)=C(S[C@@H]3CN[C@H](C(=O)N(C)C)C3)[C@H](C)[C@H]12 [Example 112] | 64 µg/mL (≈ 141 µM) | 2 µg/mL (≈ 4.41 µM) | 4 µg/mL (≈ 8.82 µM) | 4 µg/mL (≈ 8.82 µM) | 8 µg/mL (≈ 17.6 µM) |
| CC(C)C[C@@H](N)C(=O)N[C@H](C)[C@H]1C(=O)N2C(C(=O)O)=C(S[C@@H]3CN[C@H](C(=O)N(C)C)C3)[C@H](C)[C@H]12 [Example 113] | 16 µg/mL (≈ 32.3 µM) | 4 µg/mL (≈ 8.07 µM) | 32 µg/mL (≈ 64.6 µM) | 16 µg/mL (≈ 32.3 µM) | > 128 µg/mL |
| CONC(=O)CCNC(=O)[C@@H]1C[C@H](SC2=C(C(=O)O)N3C(=O)[C@H]([C@@H](C)NC(=O)C(F)F)[C@H]3[C@H]2C)CN1 [Example 115] | 8 µg/mL (≈ 15 µM) | 0.5 µg/mL (≈ 0.937 µM) | 2 µg/mL (≈ 3.75 µM) | 8 µg/mL (≈ 15 µM) | > 128 µg/mL |
| C[C@@H](NC(=O)C(F)F)[C@H]1C(=O)N2C(C(=O)O)=C(S[C@@H]3CN[C@H](C(=O)NCCC(=O)NCCO)C3)[C@H](C)[C@H]12 [Example 116] | 8 µg/mL (≈ 14.6 µM) | 0.5 µg/mL (≈ 0.913 µM) | 2 µg/mL (≈ 3.65 µM) | 4 µg/mL (≈ 7.3 µM) | > 128 µg/mL |
| C[C@@H](NC(=O)C(F)F)[C@H]1C(=O)N2C(C(=O)O)=C(S[C@@H]3CN[C@H](C(=O)N4CC[C@H](NS(=O)(=O)N(C)C)C4)C3)[C@H](C)[C@H]12 [Example 117] | 2 µg/mL (≈ 3.29 µM) | 0.5 µg/mL (≈ 0.821 µM) | 2 µg/mL (≈ 3.29 µM) | 4 µg/mL (≈ 6.57 µM) | > 128 µg/mL |
| C[C@@H](NC(=O)C(F)F)[C@H]1C(=O)N2C(C(=O)O)=C(S[C@@H]3CN[C@H](C(=O)N4CC[C@H](NC(=O)N(C)C)C4)C3)[C@H](C)[C@H]12 [Example 118] | 4 µg/mL (≈ 6.99 µM) | 0.5 µg/mL (≈ 0.873 µM) | 2 µg/mL (≈ 3.49 µM) | 8 µg/mL (≈ 14 µM) | 64 µg/mL (≈ 112 µM) |
| C[C@@H](NC(=O)C(F)F)[C@H]1C(=O)N2C(C(=O)O)=C(S[C@@H]3CN[C@H](C(=O)N4CC[C@H](NC(=O)CC#N)C4)C3)[C@H](C)[C@H]12 [Example 119] | 2 µg/mL (≈ 3.52 µM) | 0.5 µg/mL (≈ 0.879 µM) | 1 µg/mL (≈ 1.76 µM) | 8 µg/mL (≈ 14.1 µM) | 16 µg/mL (≈ 28.1 µM) |
